Measurements: patent US20250025445A1, “METHOD OF CARDIOPROTECTION” (Race Oncology LTD., priority 2021, published 2025)
Like-named read-outs stand apart in the source and are kept apart here.

Tests used:
[1] = Doxorubicin cardiotoxicity in mice: blood tests
Excerpt: (§2) In particular, well established cardiotoxicity markers, including left ventricular fractional shortening, heart E/A ratio, left ventricular diastolic function, left ventricular dilatation, cardiac output, plasma triglyceride levels, plasma creatine kinase-MB (CK-MB), plasma LDH (lactate dehydrogenase) and plasma brain natriuretic peptide (BNP) were monitored over a period of up to 42 days following the start of treatments delivered weekly, four times (and therefore final treatment on day 21).
(§3) Treatments were delivered to mice intravenously on days 0, 7, 14 and 21. Mice underwent echocardiography measurements at days 0, 21 and 42 to determine LVEF, FS, EDV, ESV, CO, E wave, A wave, E′, E/A, and E/E′, and blood samples were taken at days 0, 21 and 42 to assay for cardiac troponin I levels, BNP levels, CK, LDH levels and triglycerides.

[2] = test system: colon 26, Lewis lung, Ridgway osteosarcoma, B16, Lieberman plasma cell, P388 or L1210 cancer cells; conditions: cited from earlier work
[3] = test system: MDA-MB-231 breast cancer cells; assay: MDA-MB-231 breast cancer cell viability with Webb synergy analysis; format: cell-based, human
Procedure: Human breast cancer cell line NDA-MB-231 was cultured in a humidified chamber at 37° C. with 5% CO2 in DMEM supplemented with 10% foetal bovine serum (FBS), 2 mM L-glutamine and 2% HEPES. Cells were maintained adherent.

[4] = test system: Primary Human Cardiac Myocytes (HCMs); assay: Primary human cardiomyocyte cell viability (CellTiter-Glo); format: cell-based
Procedure: Primary Human Cardiac Myocytes (HCMs) were purchased from PromoCell® (Heidelberg, Germany) and cultured according to manufacturer's recommendations using PromoCell® Myocyte growth media (5% [v/v] foetal calf serum, 0.5 ng/ml recombinant human epidermal growth factor, 2 ng/ml recombinant human basic fibroblast growth factor, 5 μg/ml recombinant human insulin) supplemented with 1% [v/v] Penicillin-Streptomycin [Sigma-Aldrich]). Briefly, 1×10^6 HCMs were seeded and grown in Corning® T75 flasks (Sigma-Aldrich, New South Wales, Australia) in an incubator at 37° C. under 5% CO2 conditions. At 80-90% confluency, HCMs were gently detached using the DetachKit (PromoCell®), collected into Corning® 50 mL centrifuge tubes (Sigma-Aldrich), and centrifuged at 300×g for 10 mins at room temperature. The resulting supernatant were discarded and HCM pellet was resuspended with 5-10 mL of pre-warmed Myocyte Growth Medium. Total viable cells were enumerated with Invitrogen™ Countess Cell Counter (Thermo Fisher Scientific, New South Wales, Australia) and 1×10^5 live HCMs were seeded in triplicate into Corning® 96-well white polystyrene microplate (Sigma).
(§1) Dox, Dauno and Epi, were dissolved in sterile water to make a stock concentration of 20 mM, respectively, while Tz was dissolved in sterile PBS to a stock concentration of 100 μM. […] The concentrations were as follows 0 nM, 15.62 nM, 62.5 nM, 250 nM, 500 nM, 1 μM, 5 μM, and 10 μM. […] Vehicle controls were incubated with media supplemented with either sterile water or DMSO. […] This was repeated at 48 hours and 72 hours. […] Both FB23/2 and brequinar (MedChemExpress) were dissolved in dimethyl sulfoxide (DMSO; Sigma-Aldrich) to make a stock concentration of 40 mM and 20 mM respectively.

MCF7 breast cancer cells = assay: MCF7 breast cancer cell viability (CellTiter-Glo); format: cell-based, human; conditions: 72 hours
Procedure: Human breast adenocarcinoma (MCF7) cells were purchased from In Vitro Technologies (Victoria, Australia) and cultured according to manufacturer's recommendations using MCF7 growth media, Low glucose Dulbecco's Modified Eagle's medium (DMEM; Sigma-Aldrich, Australia) supplemented with 10% (v/v) foetal calf serum (Sigma-Aldrich) and 1% (v/v) Penicillin-Streptomycin (Sigma-Aldrich). Briefly, 1×10^6 MCF7 were seeded and grown in Corning® T75 flasks (Sigma-Aldrich) in an incubator at 37° C. under 5% CO2 conditions. At 80-90% confluency, MCF7 were washed with Dulbecco's Phosphate Buffered Saline (Sigma-Aldrich) for 30s at room temperature and followed by incubation with Trypsin-EDTA (Sigma-Aldrich) for 5 mins at 37° C. under 5% CO2 conditions. Trypsin solution was then neutralised with 1:1 volume of MCF7 growth media. The cell suspensions were then collected into Corning® 50 mL centrifuge tubes (Sigma-Aldrich) and centrifuged at 300×g for 10 mins at room temperature. The resulting supernatants were discarded and MCF7 pellets were resuspended with 5-10 mL of pre-warmed MCF7 growth media. Total viable cells were enumerated with Invitrogen™ Countess Cell Counter (Thermo Fisher Scientific, New South Wales, Australia) and 9×10^4 live MCF7 were seeded in triplicate into Corning® 96-well white polystyrene microplate (Sigma).
as §1

[5] = test system: tumor cells from 684 patients; conditions: breast, small cell lung, large cell lung, squamous cell lung, ovarian, pancreatic, renal, adrenal, head and neck, sarcoma, gastric, lymphoma and melanoma tumor cells; cited from earlier work
[6] = Doxorubicin cardiotoxicity in mice: histologic cardiac fibrosis; format: in vivo; conditions: bisantrene co-administered with doxorubicin at 1:1 molar ratio; Day 21; relative to matched doses of doxorubicin
Excerpt: as §2, §3

[7] = bisantrene 5.65 mg/kg + doxorubicin 4 mg/kg (Dox+Bis 80% of 1:2)
[8] = bisantrene 3.67 mg/kg + doxorubicin 5 mg/kg (Dox+Bis 1:1)

SMILES: C(=NNC1=NCCN1)c1c2ccccc2c(C=NNC2=NCCN2)c2ccccc12 [bisantrene, 9,10-anthracenedicarboxaldehyde bis [(4,5-dihydro-1H-imidazol-2-yl)hydrazone]]
- plasma CK-MB levels ([1]; bisantrene 3.67 mg/kg + doxorubicin 5 mg/kg (Dox+Bis 1:1), day 21): kept CK-MB levels down at or near the vehicle-only control levels
- mitigation of doxorubicin-induced plasma triglyceride increases ([1]; bisantrene 3.67 mg/kg + doxorubicin 5 mg/kg (Dox+Bis 1:1), day 21 and day 42): significant mitigation
- mitigation of doxorubicin-induced plasma triglyceride increases [1, 7]: less effect
- plasma CK-MB levels ([1]; bisantrene 7.33 mg/kg + doxorubicin 5 mg/kg (Dox+Bis 1:2), day 21): kept CK-MB levels down at or near the vehicle-only control levels
- mitigation of doxorubicin-induced plasma triglyceride increases ([1]; bisantrene 7.33 mg/kg + doxorubicin 5 mg/kg (Dox+Bis 1:2), day 42): significant mitigation
- brain natriuretic peptide levels (mitigation of doxorubicin effects) ([1]; bisantrene 7.33 mg/kg + doxorubicin 5 mg/kg (Dox: Bis 1:2), day 42 or day 21): not significant
- plasma triglycerides ([1]; bisantrene 7.33 mg/kg alone, day 21, vs vehicle-only control): slight (but insignificant) increase
- plasma triglycerides (increase) ([1]; bisantrene 7.33 mg/kg alone, day 42, vs vehicle-only control): not at day 42
- effectiveness in cancer models [2]: effective
- toxic effects against MDA-MB-231 breast cancer cells ([3]; bisantrene alone, FIGS. 8 to 10): concentration-dependent toxic effects
- combined effect with carfilzomib on MDA-MB-231 cells ([3]; bisantrene with carfilzomib, Webb synergy analysis, FIG. 10C): at least additive to, if not synergistic with
- combined effect with doxorubicin on MDA-MB-231 cells ([3]; bisantrene with doxorubicin, Webb synergy analysis, FIGS. 8, 10A): at least additive to, if not synergistic with
- combined effect with epirubicin on MDA-MB-231 cells ([3]; bisantrene with epirubicin, Webb synergy analysis, FIGS. 9, 10B): at least additive to, if not synergistic with
- protection of cardiomyocytes against toxicity of CFZ ([4]; 0-5 μM bisantrene with 1 μM carfilzomib, 24, 48, 72 hrs, FIG. 1): concentration-dependent protection
- protection of cardiomyocytes against toxicity of Dox ([4]; 0-5 μM bisantrene with 1 μM doxorubicin, 24, 48, 72 hrs, FIG. 1): concentration-dependent protection
- rescue of bortezomib cardiomyocyte toxicity ([4]; 1 μM bisantrene coadministered with bortezomib, 72 hours, FIG. 7): significant rescue of cardiomyocyte toxicity
- rescue of carfilzomib cardiomyocyte toxicity ([4]; 1 μM bisantrene coadministered with carfilzomib, 72 hours, FIG. 7): significant rescue of cardiomyocyte toxicity
- rescue of daunorubicin cardiotoxicity on cardiomyocytes ([4]; 1 μM bisantrene with 1 μM daunorubicin, 72 hours, FIG. 5): cardiotoxicity rescue effects
- rescue of epirubicin cardiotoxicity on cardiomyocytes ([4]; 1 μM bisantrene with 1 μM epirubicin, 72 hours, FIG. 6): a trend toward statistical significance
- effect on combined toxicity of doxorubicin and trastuzumab to cardiomyocytes ([4]; 1 or 5 μM bisantrene with 1 μM doxorubicin and 500 nM trastuzumab, FIG. 2): reduced the combined toxicity
- effect of increasing bisantrene on loss of cardiomyocyte viability with doxorubicin alone ([4]; 1 or 5 μM bisantrene with 1 μM doxorubicin, FIG. 2): reduced loss of viability
- toxicity (loss in cell viability) to cardiomyocytes ([4]; agent alone (1 μM doxorubicin, 1 μM carfilzomib, 0-5 μM bisantrene), 24 hrs, 48 hrs and 72 hrs, FIG. 1): mild progressive toxicity
- toxicity to MCF7 breast cancer cells (MCF7 breast cancer cells; 0-10 μM bisantrene alone, FIG. 3): concentration-dependent toxicity
- interference with toxicity of carfilzomib to MCF7 cells (MCF7 breast cancer cells; 0-10 μM bisantrene with 1 μM carfilzomib, FIG. 3): did not interfere with the toxicity
- combined toxicity of bisantrene with doxorubicin or carfilzomib to MCF7 cells (MCF7 breast cancer cells; 0-10 μM bisantrene with 1 μM doxorubicin or 1 μM carfilzomib): additive toxicity
- interference with toxicity of doxorubicin to MCF7 cells (MCF7 breast cancer cells; 0-10 μM bisantrene with 1 μM doxorubicin, FIG. 3): did not interfere with the toxicity
- activity in clonogenic assays [5]: Activity in clonogenic assays from 684 patients was seen
- histologic cardiac fibrosis [6]: significantly decreased
- mitigation of doxorubicin cardiotoxicity: cardiac output [8]: mitigation of doxorubicin cardiotoxicity
- mitigation of doxorubicin cardiotoxicity: left ventricular diastolic function [8]: appeared to mitigate the cardiotoxic effects
- mitigation of doxorubicin cardiotoxicity: left ventricular dilatation [8]: appeared to mitigate the cardiotoxic effects
- mitigation of doxorubicin cardiotoxicity: left ventricular fractional shortening [8]: significantly mitigated
- mitigation of doxorubicin cardiotoxicity: cardiac output [7]: even less effect
- mitigation of doxorubicin cardiotoxicity: left ventricular fractional shortening [7]: less effect
- mitigation of doxorubicin cardiotoxicity: left ventricular fractional shortening (bisantrene 7.33 mg/kg + doxorubicin 5 mg/kg (Dox+Bis 1:2)): significantly mitigated
- mitigation of doxorubicin cardiotoxicity: cardiac output (bisantrene 7.33 mg/kg + doxorubicin 5 mg/kg (Dox+Bis 1:2), compared to Dox+Bis 1:1): mitigation of doxorubicin cardiotoxicity was slightly greater
- cardiac output (bisantrene 7.33 mg/kg alone): suggestion (but not significant) of mild deleterious effects
- left ventricular diastolic function (bisantrene 7.33 mg/kg alone): suggestion (but not significant) of mild deleterious effects
- left ventricular dilatation (bisantrene 7.33 mg/kg alone): suggestion (but not significant) of mild deleterious effects
- left ventricular fractional shortening (bisantrene 7.33 mg/kg alone, i.v. days 0, 7, 14, 21): suggestion (but not significant) of mild deleterious effects
